Patent US20150290192A1, “INHIBITORS OF BRUTON'S TYROSINE KINASE” (HOFFMANN-LA ROCHE INC., priority 2012, published 2015)
Read-outs that look alike come from different tables or passages of the source. Marks after values point to notes of the source that are not given here.

Assays:
[1] = Pharmacokinetics in mouse; format: in vivo
Pharmacokinetics in rat = format: in vivo
Btk kinase = Btk kinase (Homo sapiens, UniProt Q06187); assay: Btk Biacore binding assay
Method: Analyses were performed on a Biacore T-100. Btk kinase was avi-tagged and co-expressed in baculovirus with biotin ligase to generate single site biotinylated Btk (Avidity, LLC). Biotinylated target was captured on Biacore streptavidin sensor chips (Series S Sensor Chip SA) at densities of ˜10000 resonance units (1 ru˜1 pg protein/mm2). […] Compounds were injected for 100 seconds association time and dissociation was followed for 20 min.

[2] = test system: human mast cells (FCεRI activation); assay: Human mast cell activation, mediator release after FCεRI activation; format: cell-based; settings: N = 3 donors
Method: One million human cord blood derived CD34+ hematopoietic stem cells (HSCs) from different donors (AllCells #CB008F-S, Emeryville, Calif.) were cultured for eight weeks in a serum-free complete medium (StemPro-34 with supplements; Invitrogen, Carlsbad, Calif.), with recombinant h-SCF (100 ng/ml) and h-IL6 (50 ng/ml). During the first week of culturing, recombinant h-IL3 (10 ng/ml) was also included to support HSCs differentiation. After 8 weeks of culture, cells were stimulated with recombinant h-IL-4 (10 ng/ml) for 5 days. Confirmation of the mast cell differentiation process was routinely done by FACS to check for c-kit and FcsRI expression; differentiated cells were routinely more than 90% c-kit positive, FceRI positive. Differentiated mast cells were sensitized with […] anti-NP IgE (Serotec, Raleigh, N.C.) overnight at 37° C. Cells were washed and then treated with Compound 1 for 1 hour at 37° C. After treatment, cells were cross-linked with […] NP(30)-BSA (Biosearch Technologies, Novato Calif.) for 30 minutes (for histamine and lipid mediator assessment) or overnight (for cytokine assessment). Culture supernatants were collected and assayed for histamine (Oxford Biomedical Research, Rochester Hills, Mich.), PGD2 and LTC4 (Cayman Chemical Company, Ann Arbor Mich.), and IL-5 and IL-13 (Bio-Rad Bio-Plex Pro cytokine quantification kit) release as per kits' instructions. Compound 1, Compound 2 and Compound 3 reduced the release of these mediators into the supernatant in a concentration dependent manner up to 100% efficacy and the IC50 values are reported in Table 2.

[3] = test system: OVA sensitized and challenged mice, airway eosinophilia; assay: Ovalbumin-induced allergic airway disease: allergen-induced airway eosinophilia; format: in vivo, mouse; settings: for % reduction in airway eosinophilia: Inhaled, mOVA40
Method: The mouse model of ovalbumin-induced allergic airway disease was employed to assess the effects of Compound 1 on allergen-induced bronchoconstriction and allergen-induced airway inflammation. Briefly, mice (male; BALB/c; 7-9 weeks of age) were immunized i.p. with […] of ovalbumin (OVA) in 0.2 ml of Alum (2% Al(OH)3 in water, Serva, Heidelberg, Germany) on days 0 and 14. Control animals received Alum only. On days 21-23, animals were exposed for 20 min to a nebulized (Proneb Ultra II, PARI Respiratory Equipment, Midlothian, Va.,) aerosol of 1% OVA (10 mg/ml) in phosphate-buffered saline (PBS), to establish the inflammatory process within the lung; or PBS alone as a control. For studies where intranasal dosing was used, mice were anesthetized with isoflurane and intranasally (i.n.) administered vehicle (20% propylene glycol) or Compound 1 (0.3 mg/kg) one hour prior to each aerosolized OVA challenge.
For studies using inhalation delivery, Compound 1 was micronized by a jet mill (MC One Jet Mill, Jetpharma USA Inc., South Plainfield, N.J.) and the dry powder aerosol was generated using a Wright dust feed dry powder aerosol generator. The micronized drug powder was packed into a cylindrical reservoir using a hydraulic press at approximately 1000 psi to produce compacted cakes of powder used as input by the Wright dust feed. The dust feed creates and aerosol that is passed through a sonic nozzle for de-agglomeration and into a cyclone to remove non-respirable particles and agglomerates. The cyclone output passed into the TSE nose-only rodent exposure system. Dose groups of mice were exposed to the aerosol test atmosphere for 5, 15, or 45 minutes. […] The particle size distribution for each exposure was evaluated by collecting aerosol samples with an eight stage cascade impactor. […] Impactor data were mathematically evaluated to determine the Mass Median Aerodynamic Diameter (MMAD) and Geometric Standard Deviation (GSD) of 6-tert-Butyl-2-[2-hydroxymethyl-3-(5-{5-[(2-methoxy-ethylamino)-methyl]-pyridin-2-ylamino}-1-methyl-6-oxo-1,6-dihydro-pyridin-3-yl)-phenyl]-3,4-dihydro-2H-isoquinolin-1-one using graphical analysis of an assumed lognormal distribution. The estimated deposited dose of Compound 1 was calculated using a minute volume for the mouse of 0.026 liters per minute and the pulmonary deposition fraction was determined from the MMAD. […]
To study the effects of Compound 1 on airway inflammation, after the three 1% OVA challenges, a final OVA challenge was given as an aerosol solution of 5% OVA in PBS (50 mg/ml) or PBS alone for 20 min. […] The lungs were lavaged and airway inflammation was evaluated as previously described by performing total and differential cell counts [Harris et al., 2012, Mucosal Immunology]. […]

Pharmacokinetics in dog = format: in vivo

Btk kinase, sequence (Q06187 whole entry): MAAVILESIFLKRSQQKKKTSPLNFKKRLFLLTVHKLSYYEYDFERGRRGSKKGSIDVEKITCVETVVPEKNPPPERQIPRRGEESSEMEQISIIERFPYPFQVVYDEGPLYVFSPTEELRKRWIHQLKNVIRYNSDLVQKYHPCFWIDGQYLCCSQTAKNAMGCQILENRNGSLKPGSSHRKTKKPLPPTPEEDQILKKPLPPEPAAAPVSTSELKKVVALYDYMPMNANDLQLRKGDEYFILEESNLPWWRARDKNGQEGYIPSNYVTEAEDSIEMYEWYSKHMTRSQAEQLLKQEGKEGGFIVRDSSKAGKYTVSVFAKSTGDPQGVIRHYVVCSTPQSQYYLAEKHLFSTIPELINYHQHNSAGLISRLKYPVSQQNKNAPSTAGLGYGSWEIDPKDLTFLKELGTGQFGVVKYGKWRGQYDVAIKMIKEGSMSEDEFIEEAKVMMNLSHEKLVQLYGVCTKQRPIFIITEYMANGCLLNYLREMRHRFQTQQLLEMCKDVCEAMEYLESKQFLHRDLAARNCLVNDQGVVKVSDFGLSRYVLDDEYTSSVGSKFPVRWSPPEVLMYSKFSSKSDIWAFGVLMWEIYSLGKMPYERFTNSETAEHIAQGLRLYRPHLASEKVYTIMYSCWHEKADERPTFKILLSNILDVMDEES

## CN1CCC(c2ccc(Nc3cc(-c4ccnc(-n5ncc6cc(C(C)(C)C)cc(F)c6c5=O)c4CO)nn(C)c3=O)nc2)CC1 [Compound 1, 6-tert-Butyl-8-fluoro-2-{3-hydroxymethyl-4-[1-methyl-5-(1′-methyl-1′,2′,3′,4′,5′,6′-hexahydro-[3,4′]bipyridinyl-6-ylamino)-6-oxo-1,6-dihydro-pyridazin-3-yl]-pyridin-2-yl}-2H-phthalazin-1-one]
[1]; 1.0 mg/kg (iv)
  CL: moderate
[1]; 1.0 (iv), 10 (po) mg/kg
  Oral Bioavailability: low
[1]; plasma, 1.0 mg/kg (iv)
  clearance: 26 mL/min/kg
[1]; plasma, 10 mg/kg, 1.0 (iv), 10 (po) mg/kg
  bioavailability: 12%
Pharmacokinetics in rat; 1.0 mg/kg (iv)
  CL: high
Pharmacokinetics in rat; 1.0 (iv), 2.0 (po) mg/kg
  Oral Bioavailability: low
Pharmacokinetics in rat; plasma, 1.0 mg/kg (iv)
  clearance: 75.8 mL/min/kg
Pharmacokinetics in rat; plasma, 2 mg/kg, 1.0 (iv), 2.0 (po) mg/kg
  bioavailability: 2%
Btk kinase
  Kd: 0.408 nM
Btk kinase; Biacore
  off rate: very slow
Btk kinase; read-out: Biacore Ka
  kon: 886000 M⁻¹ s⁻¹
[2]; read-out: IC50 1L-13 release
  IC50: 11.6 nM
[2]; read-out: IC50 GM-CSF release
  IC50: 3.77 nM
[2]; read-out: IC50 Histamine release
  IC50: 14.7 nM
[2]; read-out: IC50 IL-5 release
  IC50: 7.32 nM
[2]; read-out: IC50 LTC4 release
  IC50: 4.28 nM
[2]; read-out: IC50 PGD2 release
  IC50: 6.31 nM
[3]; delivered dose 0.09 mg/kg, deposited dose .003 mg/kg
  % reduction in airway eosinophilia: 82* %
[3]; delivered dose 0.27 mg/kg, deposited dose .010 mg/kg
  % reduction in airway eosinophilia: 83* %
[3]; delivered dose 0.81 mg/kg, deposited dose .030 mg/kg
  % reduction in airway eosinophilia: 84* %
[3]; dry powder formulation by inhalation
  OVA-induced increase in the numbers of eosinophils recovered in the lavage fluid: effectively inhibited
Pharmacokinetics in dog; 1.0 mg/kg (iv)
  CL: high
Pharmacokinetics in dog; 1.0 (iv), 1.0 (po) mg/kg
  Oral Bioavailability: low
Pharmacokinetics in dog; plasma, 1.0 mg/kg (iv)
  clearance: 28.3 mL/min/kg
Pharmacokinetics in dog; plasma, 1 mg/kg, 1.0 (iv), 1.0 (po) mg/kg
  bioavailability: 1.5%
